Measurements published in patent US9132280B2, “Use of fusarochromanone and its derivatives in the diagnosis and treatment of cancer and other diseases” (University of South Carolina, priority 2008, dated 2015).
Entries after “also recorded” stand apart in the source; their conditions may differ.

Assays:
[1] = tested on: normal cardiac fibroblasts; assay: Phototoxic effect under blue light exposure during time-lapse imaging, normal cells; assay type: cell-based, rat
Procedure: (§1) Cells growing in the Matra-Tek dishes were maintained in an environmental chamber (37° C. and 5% CO2 atmosphere) mounted on the stage of a Zeiss inverted fluorescence microscope equipped with a CARV spinning disk confocal attachment. B16 cells were imaged using a Zeiss 63× oil NA=1.4 apochromatic objective, which gave an image field of 7265.15 μm^2. Cardiac Fibroblasts were imaged using a Zeiss 40× oil 1.0 NA apochromatic objective, which gave an image field of 18,006.85 μm^2. The images were captured using a CCD camera (Hamamatsu ORCA-ER) controlled by Kinetic Imaging Image Acquisition Software (AQM Advance-6) software. All images were recorded at a constant exposure (385 ms) using a DAPI (360/460) filter set, which isolates the natural fluorescence of the compound.
(§2) The cells were maintained in 1 ml of tissue culture medium and allowed equilibrate in the environmental chamber, before imaging of the selected group of cells was initiated. […] The rate of entry of the drug into the cells was determined by high-speed image collection (1 sec interval, 60 exposures per min). The equilibrium-concentration uptake of the drug was determined by slow-speed time-lapse imaging (10 sec intervals, 6 exposures per min) collected for a minimum of 30 minutes. In all experiments, images were recorded prior to addition of the drug to provide a negative control of any auto-fluorescence present in the cells. […]

[2] = Experimental physicochemical properties of FC101 (pKa, structural counts; Table 1)
[3] = Experimental Log D, shaken-flask method (n-octanol/phosphate buffer); assay type: physicochemical; settings: pH 7.6
Procedure: The shaken-flask method with n-octanol/phosphate buffer was used to determine the experimental ionized partition coefficient for FC101^10. Briefly, 50 ml each of n-octanol and 0.1 M phosphate buffer (at appropriate pH) were added to a 125 ml flask and placed on a mechanical shaker at room temperature for 24 hours to ensure saturation of each phase. The phases were then separated by centrifugation (Damon IEC HN-SII) at 2000 rpm for 30 min. After separation, aliquots (1 ml) were taken from each phase and were placed in separate vials. A small sample (45.5 μl) of a stock solution of 10 mM FC101 in water was added to the aqueous phase. […] The n-octanol was separated from the phosphate buffer and the absorbance at 385 nm (Shimadzu UV 1601) was then used to determine the concentration of FC101 in each phase. The partition coefficient was calculated using the following equation: Log10 D=([FC101charged+uncharged]oct[FC101charged+uncharged]buf) Experimental Log P for FC101
The shaken-flask method with n-octanol/phosphate buffer was used to determine the experimental ionized partition coefficient for FC101^10. […] The n-octanol was separated from the phosphate buffer and the absorbance at 385 nm (Shimadzu UV 1601) was then used to determine the concentration of FC101 in each phase. […]

B16 melanoma cells [4] = assay: Phototoxic effect under blue light exposure during time-lapse imaging, transformed cells; assay type: cell-based, mouse; settings: transformed cells loaded with FC101
Procedure: as §1, §2

B16 melanoma cells [5] = assay: Confocal time-lapse fluorescence imaging of drug uptake (IOD) in B16 melanoma cells; assay type: cell-based, mouse; settings: 400 nM
Procedure: as §1, §2

[6] = Experimental Log P, shaken-flask method (n-octanol/water adjusted to pH 10); assay type: physicochemical
Procedure: The shaken-flask method was also used to determine the experimental non-ionized partition coefficient for FC101. The same procedure used in the experimental determination of Log D for FC101 was used to determine the Log P with the exception that double-distilled water adjusted to pH 10 with 1 mM NaOH was used instead of the phosphate buffer. The log P was calculated using: Log10 P=Log10([FC101uncharged]oct/[FC101uncharged]wat) Imaging of Drug Uptake: […]

[7] = tested on: normal cardiac fibroblasts; assay: Confocal time-lapse fluorescence imaging of drug uptake (IOD) in normal cardiac fibroblasts; assay type: cell-based, rat; settings: 400 nM
Procedure: as §1, §2
FC101 is a naturally fluorescent molecule and its movements, accumulation and distribution within living cells can be followed and analyzed in real-time or by time-lapse imaging. Cellular uptake of the drug was analyzed using the integrated morphometry subroutine of MetaMorph 6.1 (MDS Analytical Technologies). […] The drug fluorescence in the cytoplasm of the cells was thresholded as a region of interest and the integrated optical density (IOD) of the drug fluorescence was measured for all cells in the field at each time point. Values of image brightness, contrast and gamma function were kept constant for all image measurements of drug fluorescence. […]

B-16 melanoma cells = assay: Cell growth inhibition, MTT assay; assay type: cell-based, mouse; settings: B-16 melanoma cells compared to normal cardiac fibroblasts
Procedure: Cells were plated in a 96 well format containing 100 μl per well of appropriate media at a density of 2.5×10^4 cells/ml, and incubated at 37° C. with 5% CO2. After a 24 h attachment period, the cells were treated in sextuplicate with 100 μl per well of varying concentrations (0 to 10 μM) of FC101. Final volume in each well was 200 μl. Cell proliferation was then determined by the MTT assay after 48 hr incubation period^8. Briefly, 20 μl of a 5 mg/ml solution of MTT (dissolved in HBS) was added to each well. After 4.5 hr incubation at 37° C., the media were then removed and the insoluble mitochondrial-converted dye was solubilized in 100 μl of DMSO. The plates were placed on a shaker for 30 min to ensure that all of the dye was in solution and then read on a (Spectra Max plus 384, Molecular Devices) microplate reader at […]. The background absorbency at 640 nM was subtracted from the 570 nM value before calculating the GI50.

CC1(C)CC(=O)c2c(ccc(C(=O)CC(N)CO)c2N)O1 (racemic) [FC101, 5-amino-2,2-dimethyl-6-[3′-(R,S)amino-4′-hydroxy-butan-1-one]-2,3-dihydro-4H-1-benzopyran-4-one]
Cell death (phototoxic effect) on blue light exposure [1]: do not exhibit this effect; also recorded: ineffectiveness | Hydrogen Bond Acceptors [2]: 6 | Hydrogen Bond Donors [2]: 5 | pKa ([2]; amino group on C-3 of the side chain): 8.6 | Log10 D7.6 [3]: 0.38 | Cell death (phototoxic effect) on blue light exposure (B16 melanoma cells [4]): undergo cell death | Uptake of FC101 (intracellular fluorescence) (B16 melanoma cells [5]; 10 sec after addition): immediately entered the cells | Uptake of FC101 (intracellular fluorescence) (B16 melanoma cells [5]; 20 min after addition): stable with no decrease in intracellular drug fluorescence | Log10 P [6]: 1.62 | Uptake of FC101 (intracellular fluorescence) ([7]; 10 sec after addition (less than a minute)): No incorporation; also recorded: no uptake of FC101 | Uptake of FC101 (intracellular fluorescence) ([7]; 4 min after addition): minimal increase in cytoplasmic fluorescence | Uptake of FC101 (intracellular fluorescence) ([7]; 20 min after addition): significant increase in intracellular fluorescence | Inhibition of cell growth, tumorigenic versus normal cells (B-16 melanoma cells): preferential inhibition of tumorigenic B-16 melanoma cells
